Data from ChEMBL document CHEMBL1933032, “Synthesis and evaluation of 4-alkoxy-[1'-cyclobutyl-spiro(3,4-dihydrobenzopyran-2,4'-piperidine)] analogues as histamine-3 receptor antagonists” (Bioorg Med Chem Lett, 2012).
pIC50, pKi: −log10 of the molar value.

Experiments:
Histamine H3 receptor [1] = molecular target: Histamine H3 receptor (Homo sapiens, UniProt Q9Y5N1); experiment: Binding affinity to human histamine H3 receptor
Histamine H3 receptor [2] = molecular target: Histamine H3 receptor (Rattus norvegicus, UniProt Q9QYN8); experiment: Binding affinity to rat histamine H3 receptor
Histamine H1 receptor = Histamine H1 receptor (Homo sapiens, UniProt P35367); experiment: Binding affinity to human histamine H1 receptor
Histamine H2 receptor = Histamine H2 receptor (Homo sapiens, UniProt P25021); experiment: Binding affinity to human histamine H2 receptor
Histamine H4 receptor = Histamine H4 receptor (Homo sapiens, UniProt Q9H3N8); experiment: Binding affinity to human histamine H4 receptor
[3] = Half life in human liver microsomes; assay type: ADME, Microsome
[4] = Half life in mouse liver microsomes; assay type: ADME, Microsome
[5] = Half life in rat liver microsomes; assay type: ADME, Microsome
[6] = Half life in monkey liver microsomes; assay type: ADME, Macaca mulatta, Microsome; conditions: rhesus monkey
Cytochrome P450 2D6 = Cytochrome P450 2D6 (Homo sapiens, UniProt P10635); experiment: Inhibition of CYP2D6; assay type: ADME
[7] = Half life in rat at 1 mg/kg, iv; assay type: ADME, organism-based; design: dose 1 mg/kg, route intravenous; conditions: in vivo
[8] = Volume of distribution in rat at 1 mg/kg, iv; assay type: ADME, organism-based; design: dose 1 mg/kg, route intravenous; conditions: in vivo
[9] = Clearance in rat at 1 mg/kg, iv; assay type: ADME, organism-based; design: dose 1 mg/kg, route intravenous; conditions: in vivo
[10] = AUC (0 to t) in rat at 5 mg/kg, po; assay type: ADME, organism-based; design: dose 5 mg/kg, route oral; conditions: plasma
[11] = Cmax in rat at 5 mg/kg, po; assay type: ADME, organism-based; design: dose 5 mg/kg, route oral; conditions: in vivo
[12] = Oral bioavailability in rat at 5 mg/kg; assay type: ADME, organism-based; conditions: in vivo
[13] = Ratio drug uptake in brain to plasma of rat at 5 mg/kg, po measured after 6 hrs; assay type: ADME, organism-based; design: dose 5 mg/kg, route oral; conditions: read-out: BPR
[14] = Inhibition of nACh receptor at 10 uM
[15] = molecular target: T1, Alpha-2C adrenergic receptor (Homo sapiens) (UniProt P18825); experiment: Inhibition of adrenergic Alpha-2C receptor at 10 uM
T1 sequence (whole entry): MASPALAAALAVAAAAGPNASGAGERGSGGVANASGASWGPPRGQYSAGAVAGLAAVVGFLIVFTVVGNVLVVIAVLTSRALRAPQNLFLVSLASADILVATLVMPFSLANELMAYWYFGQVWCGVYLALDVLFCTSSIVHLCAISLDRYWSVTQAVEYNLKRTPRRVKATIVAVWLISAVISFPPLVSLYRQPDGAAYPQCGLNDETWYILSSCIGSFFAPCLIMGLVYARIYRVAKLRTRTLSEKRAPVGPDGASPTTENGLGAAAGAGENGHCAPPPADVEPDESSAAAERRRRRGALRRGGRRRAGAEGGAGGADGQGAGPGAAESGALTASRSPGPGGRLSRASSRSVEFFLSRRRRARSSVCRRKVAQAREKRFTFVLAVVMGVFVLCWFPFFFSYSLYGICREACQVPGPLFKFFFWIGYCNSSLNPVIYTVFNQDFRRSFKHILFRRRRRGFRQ

[16] = molecular target: T2, Alpha-1D adrenergic receptor (Homo sapiens) (UniProt P25100); experiment: Inhibition of adrenergic Alpha-1D receptor at 10 uM
T2 sequence (whole entry): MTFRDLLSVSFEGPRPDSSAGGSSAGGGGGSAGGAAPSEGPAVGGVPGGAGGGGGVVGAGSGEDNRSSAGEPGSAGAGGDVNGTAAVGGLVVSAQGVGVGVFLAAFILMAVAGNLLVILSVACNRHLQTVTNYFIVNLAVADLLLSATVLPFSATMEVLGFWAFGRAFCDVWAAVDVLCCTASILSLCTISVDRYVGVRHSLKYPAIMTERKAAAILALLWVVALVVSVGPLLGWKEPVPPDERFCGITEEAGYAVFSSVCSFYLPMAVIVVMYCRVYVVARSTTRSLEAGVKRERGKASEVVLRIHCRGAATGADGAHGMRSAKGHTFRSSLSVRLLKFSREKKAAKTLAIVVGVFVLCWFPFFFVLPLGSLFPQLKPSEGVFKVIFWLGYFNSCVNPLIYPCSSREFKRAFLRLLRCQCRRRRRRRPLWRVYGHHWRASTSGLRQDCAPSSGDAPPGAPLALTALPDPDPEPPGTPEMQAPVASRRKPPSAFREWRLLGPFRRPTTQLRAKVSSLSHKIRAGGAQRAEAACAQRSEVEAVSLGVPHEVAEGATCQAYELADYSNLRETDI

[17] = Plasma protein binding in human; assay type: ADME, cell-free; conditions: read-out: PPB (converted)
[18] = Plasma protein binding in rat; assay type: ADME, cell-free; conditions: read-out: PPB (converted)
[19] = Fraction unbound in rat brain homogenate; assay type: ADME, tissue-based
Rattus norvegicus = experiment: Inhibition of RAMH-induced dipsogenia in rat at 3 mg/kg, po; assay type: functional
Cytochrome P450 1A2 = molecular target: T3, Cytochrome P450 1A2 (Homo sapiens, UniProt P05177); experiment: Inhibition of CYP1A2; assay type: ADME
T3 sequence (P05177 whole entry): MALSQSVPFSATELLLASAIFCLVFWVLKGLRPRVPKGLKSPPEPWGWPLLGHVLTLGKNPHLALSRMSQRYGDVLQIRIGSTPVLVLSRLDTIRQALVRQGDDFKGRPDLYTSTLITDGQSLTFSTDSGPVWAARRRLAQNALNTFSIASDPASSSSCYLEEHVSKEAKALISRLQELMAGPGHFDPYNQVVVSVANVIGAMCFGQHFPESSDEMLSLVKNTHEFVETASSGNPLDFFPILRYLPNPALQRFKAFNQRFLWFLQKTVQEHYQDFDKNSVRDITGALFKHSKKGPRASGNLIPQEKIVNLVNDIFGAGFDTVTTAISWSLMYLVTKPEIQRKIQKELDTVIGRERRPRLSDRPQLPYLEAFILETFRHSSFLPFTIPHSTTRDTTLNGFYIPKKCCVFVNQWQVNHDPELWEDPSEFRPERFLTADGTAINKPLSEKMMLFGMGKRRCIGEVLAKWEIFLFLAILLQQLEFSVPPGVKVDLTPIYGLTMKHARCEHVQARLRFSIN

Cytochrome P450 2C9 = Cytochrome P450 2C9 (Homo sapiens, UniProt P11712); experiment: Inhibition of CYP2C9; assay type: ADME
Cytochrome P450 2C19 = Cytochrome P450 2C19 (Homo sapiens, UniProt P33261); experiment: Inhibition of CYP2C19; assay type: ADME
Cytochrome P450 3A4 = Cytochrome P450 3A4 (Homo sapiens, UniProt P08684); experiment: Inhibition of CYP3A4; assay type: ADME
Sequence of Cytochrome P450 3A4 (P08684 whole entry): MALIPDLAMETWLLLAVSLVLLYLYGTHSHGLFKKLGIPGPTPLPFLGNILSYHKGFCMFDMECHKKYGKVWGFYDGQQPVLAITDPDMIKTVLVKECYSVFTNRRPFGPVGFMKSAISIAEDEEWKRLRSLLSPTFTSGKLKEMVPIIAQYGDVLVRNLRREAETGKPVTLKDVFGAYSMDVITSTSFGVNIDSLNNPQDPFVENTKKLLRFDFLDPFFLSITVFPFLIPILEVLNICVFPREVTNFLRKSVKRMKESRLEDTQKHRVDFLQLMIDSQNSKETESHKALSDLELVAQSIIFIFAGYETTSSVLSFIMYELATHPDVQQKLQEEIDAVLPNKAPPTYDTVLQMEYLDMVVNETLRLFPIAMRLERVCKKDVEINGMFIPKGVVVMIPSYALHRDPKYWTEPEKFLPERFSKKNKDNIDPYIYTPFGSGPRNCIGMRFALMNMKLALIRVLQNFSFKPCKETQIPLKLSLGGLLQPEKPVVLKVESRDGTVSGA

Sequence of Cytochrome P450 2D6 (P10635 whole entry): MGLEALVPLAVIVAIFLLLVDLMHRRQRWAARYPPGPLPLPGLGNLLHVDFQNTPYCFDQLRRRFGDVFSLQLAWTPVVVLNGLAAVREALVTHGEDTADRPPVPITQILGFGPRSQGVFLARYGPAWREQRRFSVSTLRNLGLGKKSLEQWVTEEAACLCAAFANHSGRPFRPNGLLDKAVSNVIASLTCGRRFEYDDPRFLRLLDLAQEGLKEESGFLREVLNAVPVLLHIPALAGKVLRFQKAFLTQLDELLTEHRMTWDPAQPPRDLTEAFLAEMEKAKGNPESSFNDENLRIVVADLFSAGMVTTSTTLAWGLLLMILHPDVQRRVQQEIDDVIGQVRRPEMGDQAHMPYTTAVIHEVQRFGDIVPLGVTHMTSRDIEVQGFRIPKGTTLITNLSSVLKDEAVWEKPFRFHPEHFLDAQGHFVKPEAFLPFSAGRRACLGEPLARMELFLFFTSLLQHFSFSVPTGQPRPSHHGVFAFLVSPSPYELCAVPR
Sequence of Histamine H4 receptor (Q9H3N8 whole entry): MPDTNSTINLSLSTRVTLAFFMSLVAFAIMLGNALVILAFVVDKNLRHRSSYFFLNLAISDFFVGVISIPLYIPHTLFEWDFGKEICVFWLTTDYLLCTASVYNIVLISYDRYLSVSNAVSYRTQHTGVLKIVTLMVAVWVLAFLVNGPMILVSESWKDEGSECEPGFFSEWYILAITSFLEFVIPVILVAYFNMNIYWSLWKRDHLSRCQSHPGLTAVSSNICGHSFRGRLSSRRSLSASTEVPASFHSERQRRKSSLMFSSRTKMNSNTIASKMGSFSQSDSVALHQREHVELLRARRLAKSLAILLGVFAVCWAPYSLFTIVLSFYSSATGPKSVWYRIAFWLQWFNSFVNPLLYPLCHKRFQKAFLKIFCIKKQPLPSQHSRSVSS
Sequence of Histamine H3 receptor (Homo sapiens, UniProt Q9Y5N1) (Q9Y5N1 whole entry): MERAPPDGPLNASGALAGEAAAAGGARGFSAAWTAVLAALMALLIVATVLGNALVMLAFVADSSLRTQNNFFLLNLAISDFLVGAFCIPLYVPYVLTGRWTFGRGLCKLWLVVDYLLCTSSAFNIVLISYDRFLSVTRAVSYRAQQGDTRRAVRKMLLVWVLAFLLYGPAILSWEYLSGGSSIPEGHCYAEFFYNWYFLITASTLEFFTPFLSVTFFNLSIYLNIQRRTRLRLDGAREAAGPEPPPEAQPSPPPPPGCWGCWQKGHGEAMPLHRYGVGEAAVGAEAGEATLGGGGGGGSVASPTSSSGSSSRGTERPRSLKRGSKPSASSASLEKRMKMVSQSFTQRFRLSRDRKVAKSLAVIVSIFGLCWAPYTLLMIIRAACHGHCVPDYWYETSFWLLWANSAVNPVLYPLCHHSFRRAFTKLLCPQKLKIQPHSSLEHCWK
Sequence of Histamine H1 receptor (P35367 whole entry): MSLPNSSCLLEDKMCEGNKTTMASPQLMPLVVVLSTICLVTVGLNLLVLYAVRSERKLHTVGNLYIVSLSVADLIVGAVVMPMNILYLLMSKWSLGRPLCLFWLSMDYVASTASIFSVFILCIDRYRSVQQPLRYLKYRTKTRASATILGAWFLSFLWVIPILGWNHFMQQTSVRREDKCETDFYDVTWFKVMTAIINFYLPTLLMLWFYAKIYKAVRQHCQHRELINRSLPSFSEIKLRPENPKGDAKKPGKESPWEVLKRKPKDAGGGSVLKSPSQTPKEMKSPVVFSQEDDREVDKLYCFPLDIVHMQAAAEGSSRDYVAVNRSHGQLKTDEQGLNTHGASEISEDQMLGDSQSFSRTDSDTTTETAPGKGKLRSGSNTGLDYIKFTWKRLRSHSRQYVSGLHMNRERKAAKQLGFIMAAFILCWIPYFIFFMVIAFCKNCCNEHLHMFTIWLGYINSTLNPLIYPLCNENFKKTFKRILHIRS
Sequence of Histamine H3 receptor (Rattus norvegicus, UniProt Q9QYN8) (Q9QYN8 whole entry): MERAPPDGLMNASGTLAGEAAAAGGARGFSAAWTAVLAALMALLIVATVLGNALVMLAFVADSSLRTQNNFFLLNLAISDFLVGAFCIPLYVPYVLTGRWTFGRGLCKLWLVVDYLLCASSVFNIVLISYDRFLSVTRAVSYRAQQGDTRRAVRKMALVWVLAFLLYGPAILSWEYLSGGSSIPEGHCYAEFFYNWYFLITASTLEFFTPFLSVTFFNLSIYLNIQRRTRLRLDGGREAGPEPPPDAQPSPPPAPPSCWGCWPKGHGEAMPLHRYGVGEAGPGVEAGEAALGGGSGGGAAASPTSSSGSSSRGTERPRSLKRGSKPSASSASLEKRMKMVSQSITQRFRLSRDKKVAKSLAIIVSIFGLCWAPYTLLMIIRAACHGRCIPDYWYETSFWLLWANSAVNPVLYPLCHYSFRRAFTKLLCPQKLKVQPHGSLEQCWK
Sequence of Histamine H2 receptor (P25021 whole entry): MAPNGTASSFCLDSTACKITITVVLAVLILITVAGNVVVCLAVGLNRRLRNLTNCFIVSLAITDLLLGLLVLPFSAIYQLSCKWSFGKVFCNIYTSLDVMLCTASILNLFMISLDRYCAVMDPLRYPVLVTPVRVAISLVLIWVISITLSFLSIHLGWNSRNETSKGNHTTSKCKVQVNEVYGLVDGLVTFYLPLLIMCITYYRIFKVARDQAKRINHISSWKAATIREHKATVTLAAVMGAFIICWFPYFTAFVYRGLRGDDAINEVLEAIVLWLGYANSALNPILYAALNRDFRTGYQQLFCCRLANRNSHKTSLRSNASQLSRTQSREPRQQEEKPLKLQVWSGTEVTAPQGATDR
Sequence of Cytochrome P450 2C19 (P33261 whole entry): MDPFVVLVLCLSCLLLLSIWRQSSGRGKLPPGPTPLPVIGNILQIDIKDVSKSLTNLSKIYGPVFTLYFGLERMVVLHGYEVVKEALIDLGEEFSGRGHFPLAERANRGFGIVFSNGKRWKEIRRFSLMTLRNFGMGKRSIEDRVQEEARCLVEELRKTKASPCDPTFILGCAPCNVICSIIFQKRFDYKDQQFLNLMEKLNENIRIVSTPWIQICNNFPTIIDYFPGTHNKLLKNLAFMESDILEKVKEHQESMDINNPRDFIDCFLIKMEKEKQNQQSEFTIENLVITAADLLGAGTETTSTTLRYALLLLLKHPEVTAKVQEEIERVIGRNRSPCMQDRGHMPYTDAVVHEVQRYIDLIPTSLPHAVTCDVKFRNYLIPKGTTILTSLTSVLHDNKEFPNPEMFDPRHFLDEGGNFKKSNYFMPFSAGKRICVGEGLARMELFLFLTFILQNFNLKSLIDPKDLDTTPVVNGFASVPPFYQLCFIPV
Sequence of Cytochrome P450 2C9 (P11712 whole entry): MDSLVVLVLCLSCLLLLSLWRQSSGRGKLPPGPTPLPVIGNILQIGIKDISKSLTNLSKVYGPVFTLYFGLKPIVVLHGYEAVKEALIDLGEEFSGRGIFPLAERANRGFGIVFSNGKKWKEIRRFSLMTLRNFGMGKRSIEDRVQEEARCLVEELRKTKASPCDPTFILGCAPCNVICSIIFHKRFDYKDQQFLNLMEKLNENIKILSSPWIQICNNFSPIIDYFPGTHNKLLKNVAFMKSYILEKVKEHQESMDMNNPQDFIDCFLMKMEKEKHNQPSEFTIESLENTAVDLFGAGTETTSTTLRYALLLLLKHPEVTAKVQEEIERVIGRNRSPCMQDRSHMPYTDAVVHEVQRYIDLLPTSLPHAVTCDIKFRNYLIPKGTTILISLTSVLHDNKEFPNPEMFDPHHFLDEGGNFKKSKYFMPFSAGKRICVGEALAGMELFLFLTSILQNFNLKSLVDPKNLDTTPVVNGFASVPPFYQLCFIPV

## O=S1(=O)CCC(Oc2ccc3c(c2)CCC2(CCN(C4CCC4)CC2)O3)CC1
Histamine H3 receptor [1]
  pKi: 8.15
Histamine H3 receptor [2]
  pKi: 7.62
Histamine H1 receptor
  pKi: < 5.00
Histamine H2 receptor
  pKi: < 5.00
Histamine H4 receptor
  pKi: < 5.00
[3]
  half-life: > 40 min
[4]
  half-life: > 40 min
[5]
  half-life: > 40 min
[6]
  half-life: > 40 min
Cytochrome P450 2D6
  pIC50: 5.18
[7]
  half-life: 102 min
[8]
  Vd: 2.8 L/kg
[9]
  clearance: 19 mL/min/kg
[10]
  AUC(0-t): 1790 ng·h/mL
[11]
  Cmax: 460 ng/mL
[12]
  bioavailability: 48%
[13]
  Kp at 6 h: 1
[14]
  inhibition: 63%
[15]
  inhibition: 78%
[16]
  inhibition: 50%
[17]
  fraction unbound: 0.23
[18]
  fraction unbound: 0.27
[19]
  fraction unbound: 0.27
Rattus norvegicus
  inhibition in vivo at 3 mg/kg: 61%

## CS(=O)(=O)CCOc1ccc2c(c1)CCC1(CCN(C3CCC3)CC1)O2
Histamine H3 receptor [1]
  pKi: 7.41
Histamine H3 receptor [2]
  pKi: 6.80

## c1cc2c(cc1O[C@H]1CCOC1)CCC1(CCN(C3CCC3)CC1)O2
Histamine H3 receptor [1]
  pKi: 7.82
Histamine H3 receptor [2]
  pKi: 7.41

## O=S1(=O)CCC(Oc2ccc3c(c2)CCC2(CCN(C4CCC4)CC2)O3)C1 (stereo not drawn)
Histamine H3 receptor [1]
  pKi: 7.64
Histamine H3 receptor [2]
  pKi: 7.36

## OCCOc1ccc2c(c1)CCC1(CCN(C3CCC3)CC1)O2
Histamine H3 receptor [1]
  pKi: 6.90
Histamine H3 receptor [2]
  pKi: 6.43

## c1cc2c(cc1OC1CCSC1)CCC1(CCN(C3CCC3)CC1)O2 (stereo not drawn)
Histamine H3 receptor [1]
  pKi: 7.77
Histamine H3 receptor [2]
  pKi: 7.38

## CC(C)(O)COc1ccc2c(c1)CCC1(CCN(C3CCC3)CC1)O2
Histamine H3 receptor [1]
  pKi: 7.74
Histamine H3 receptor [2]
  pKi: 7.13

## c1cc2c(cc1OC1CCOCC1)CCC1(CCN(C3CCC3)CC1)O2
Histamine H3 receptor [1]
  pKi: 7.82
Histamine H3 receptor [2]
  pKi: 7.38

## c1cc2c(cc1OCC1CCCO1)CCC1(CCN(C3CCC3)CC1)O2 (stereo not drawn)
Histamine H3 receptor [1]
  pKi: 7.80
Histamine H3 receptor [2]
  pKi: 7.30

## c1cc2c(cc1OCC1CCSCC1)CCC1(CCN(C3CCC3)CC1)O2
Histamine H3 receptor [1]
  pKi: 7.92
Histamine H3 receptor [2]
  pKi: 7.32

## c1cc2c(cc1OCC1CCOC1)CCC1(CCN(C3CCC3)CC1)O2 (stereo not drawn)
Histamine H3 receptor [1]
  pKi: 7.74
Histamine H3 receptor [2]
  pKi: 7.31

## CC[C@@H](O)COc1ccc2c(c1)CCC1(CCN(C3CCC3)CC1)O2
Histamine H3 receptor [1]
  pKi: 7.82
Histamine H3 receptor [2]
  pKi: 7.07

## c1cc2c(cc1OC1CCSCC1)CCC1(CCN(C3CCC3)CC1)O2
Histamine H3 receptor [1]
  pKi: 7.64
Histamine H3 receptor [2]
  pKi: 7.21

## COCCOc1ccc2c(c1)CCC1(CCN(C3CCC3)CC1)O2
Histamine H3 receptor [1]
  pKi: 7.38
Histamine H3 receptor [2]
  pKi: 7.04

## CC[C@H](O)COc1ccc2c(c1)CCC1(CCN(C3CCC3)CC1)O2
Histamine H3 receptor [1]
  pKi: 7.59
Histamine H3 receptor [2]
  pKi: 6.95

## CC(O)COc1ccc2c(c1)CCC1(CCN(C3CCC3)CC1)O2 (stereo not drawn)
Histamine H3 receptor [1]
  pKi: 7.60
Histamine H3 receptor [2]
  pKi: 7.00

## CSCCCOc1ccc2c(c1)CCC1(CCN(C3CCC3)CC1)O2
Histamine H3 receptor [1]
  pKi: 7.82
Histamine H3 receptor [2]
  pKi: 7.19

## O=S1(=O)CCC(COc2ccc3c(c2)CCC2(CCN(C4CCC4)CC2)O3)CC1
Histamine H3 receptor [1]
  pKi: 8.40
Histamine H3 receptor [2]
  pKi: 8.05
Histamine H1 receptor
  pKi: < 5.00
Histamine H2 receptor
  pKi: < 5.00
Histamine H4 receptor
  pKi: < 5.00
[3]
  half-life: > 40 min
[4]
  half-life: > 40 min
[5]
  half-life: > 40 min
[6]
  half-life: > 40 min
Cytochrome P450 2D6
  pIC50: 4.96
[7]
  half-life: 114 min
[8]
  Vd: 3.6 L/kg
[9]
  clearance: 23 mL/min/kg
[10]
  AUC(0-t): 713 ng·h/mL
[11]
  Cmax: 157 ng/mL
[12]
  bioavailability: 22%
[13]
  Kp at 6 h: 0.73

## c1cc2c(cc1O[C@@H]1CCOC1)CCC1(CCN(C3CCC3)CC1)O2
Histamine H3 receptor [1]
  pKi: 7.57
Histamine H3 receptor [2]
  pKi: 6.92

## CS(=O)(=O)CCCOc1ccc2c(c1)CCC1(CCN(C3CCC3)CC1)O2
Histamine H3 receptor [1]
  pKi: 8.00
Histamine H3 receptor [2]
  pKi: 7.39
Histamine H1 receptor
  pKi: < 5.00
Histamine H2 receptor
  pKi: < 5.00
Histamine H4 receptor
  pKi: < 5.00
[3]
  half-life: > 40 min
[4]
  half-life: > 40 min
[5]
  half-life: > 40 min
[6]
  half-life: > 40 min
Cytochrome P450 1A2
  pIC50: < 4.52
Cytochrome P450 2C9
  pIC50: < 4.52
Cytochrome P450 2C19
  pIC50: < 4.52
Cytochrome P450 2D6
  pIC50: < 4.52
Cytochrome P450 3A4
  pIC50: < 4.52
[7]
  half-life: 54 min
[8]
  Vd: 1.2 L/kg
[9]
  clearance: 16 mL/min/kg
[10]
  AUC(0-t): 586 ng·h/mL
[11]
  Cmax: 142 ng/mL
[12]
  bioavailability: 13%
[13]
  Kp at 6 h: 0.73

## CSCCOc1ccc2c(c1)CCC1(CCN(C3CCC3)CC1)O2
Histamine H3 receptor [1]
  pKi: 7.42
Histamine H3 receptor [2]
  pKi: 7.07
